Target: T1, Myriococcum thermophilum cellobiose dehydrogenase (CDH, SEQ ID NO: 1) variant N313S (Thermothelomyces myriococcoides, UniProt A9XK88, N313S)
T1 sequence (A9XK88 22-828 N313S): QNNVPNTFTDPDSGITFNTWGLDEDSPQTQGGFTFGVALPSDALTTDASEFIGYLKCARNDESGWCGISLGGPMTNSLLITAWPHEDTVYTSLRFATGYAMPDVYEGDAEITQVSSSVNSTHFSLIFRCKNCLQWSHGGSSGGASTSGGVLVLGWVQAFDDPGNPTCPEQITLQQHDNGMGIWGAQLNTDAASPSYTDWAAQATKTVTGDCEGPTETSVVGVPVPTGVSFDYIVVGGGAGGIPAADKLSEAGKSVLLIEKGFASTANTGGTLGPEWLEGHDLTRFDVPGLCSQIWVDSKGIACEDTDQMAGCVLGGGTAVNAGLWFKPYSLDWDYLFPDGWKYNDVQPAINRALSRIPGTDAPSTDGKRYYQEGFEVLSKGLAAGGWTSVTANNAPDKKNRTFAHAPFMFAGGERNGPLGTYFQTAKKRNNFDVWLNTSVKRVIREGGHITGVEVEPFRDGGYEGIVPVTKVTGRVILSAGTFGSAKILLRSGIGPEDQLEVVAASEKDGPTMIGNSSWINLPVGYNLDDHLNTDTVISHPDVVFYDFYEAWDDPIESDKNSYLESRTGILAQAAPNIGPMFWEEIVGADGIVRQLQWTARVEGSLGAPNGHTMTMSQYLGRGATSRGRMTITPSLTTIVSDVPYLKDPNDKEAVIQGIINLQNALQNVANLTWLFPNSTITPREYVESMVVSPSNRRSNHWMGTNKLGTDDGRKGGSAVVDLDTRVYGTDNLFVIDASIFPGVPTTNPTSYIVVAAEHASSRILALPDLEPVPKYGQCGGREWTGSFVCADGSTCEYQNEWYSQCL
Assay: Steady-state kinetics, DCIP assay: M. thermophilum CDH N313S
Type: biochemical
Conditions: apparent, pH 4.5, 30° C.
Protocol: Enzyme activity was assayed at 30° C. using either the DCIP (Karapetyan et al., 2005 Journal of Biotechnology 121: 34-48) or cytochrome c (Canevascini et al., 1991, European Journal of Biochemistry 198: 43-52) as electron acceptor. […] Stock solutions of carbohydrates used for kinetic measurements were prepared in the respective buffer and allowed to stand overnight for mutarotation, while stock solutions of electron acceptors were prepared in water and immediately used. The reaction stoichiometry is 1 for the two-electron acceptor DCIP (1 mole of DCIP reduced per mole of carbohydrate oxidized), but 2 for the one-electron acceptor cytochrome c. Kinetic constants were calculated by fitting the observed data to the Henri-Michaelis-Menten equation or to the adapted model for substrate inhibition using nonlinear least-squares regression and the program SigmaPlot (Systat Software, San Jose, Calif., USA). […]
Recombinant wild-type CDH as well as variants were produced in 1 L baffled flasks. […] Increase in activity was monitored using the DCIP and the cytochrome c enzyme assays. […]
The sample was loaded on a 20 mL PHE Sepharose FF column (HR26/20) equilibrated with 50 mM Na-acetate buffer pH 5.5 containing 20% ammonium sulfate. […] Fractions were tested for CDH activity and pooled according to the highest Reinheitszahl (RZ, calculated from the absorbance ratio 420 nm/280 nm). […]

For `OC[C@H]1OC(O)[C@H](O)[C@@H](O)[C@@H]1O` (some centres unmarked) [Glucose, glucose], the kcat was 6.8 s⁻¹ and the kcat/KM was 8.8 M⁻¹ s⁻¹.

Reference: patent publication US10184115B2, “Mutated cellobiose dehydrogenase with increased substrate specificity” (DIRECTSENS GMBH, priority 2012, dated 2019)
